Data taken from patent publication US9464084B2, “P2X7 modulators” (Janssen Pharmaceutica NV, priority 2013, dated 2016).

The molecules below were run against P2X7 (Homo sapiens (Human), UniProt Q99572) (assay: P2X7 antagonism in human PBMCs (LPS + Bz-ATP induced IL-1β release, ELISA)). Conditions: compound 1 μM, LPS 30 ng/ml, Bz-ATP 0.5 mM.
Assay type: cell-based
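Also: PBMCs from donor human blood, with a further 1.5 h incubation of the cells in the assay.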
Description: Human blood was collected using a blood donor program. PBMCs were isolated from blood using a Ficoll density gradient technique. Briefly, blood was laid on Ficoll solution and centrifuged at RT for 20 minutes at 2000 rpm. The buffy layer (between red blood cells and plasma) was carefully collected by aspiration, washed with PBS and centrifuged again at 1500 rpm for 15 minutes. The resulting cell pellet was washed and plated on 96 well-plates for experiments. For the Mouse/Human Whole Blood experiments, 150 μl of either mouse or human blood was platted on 96 well-plates. Lipopolysaccharide (LPS) (30 ng/ml) was added to each well and incubated for 1 hour. Test compounds were then added and incubated for 30 minutes. The P2X7 agonist, 2′(3′)-O-(4-benzoylbenzoyl) adenosine 5′ triphosphate (Bz-ATP) was then added at a final concentration of 0.5 mM (PBMC) or 1 mM (blood). Cells were incubated for an additional 1.5 hours. At that point, supernatant was collected and stored for IL-1β assay using manufacturer's protocol for enzyme-linked immunosorbent assay (ELISA). Data was expressed as percent control, where control is defined as the difference in IL-1β release in LPS+Bz-ATP samples and LPS only samples. Data was plotted as response (% control) versus concentration to generate IC50 values.

Sequence of P2X7 (Q99572 whole entry): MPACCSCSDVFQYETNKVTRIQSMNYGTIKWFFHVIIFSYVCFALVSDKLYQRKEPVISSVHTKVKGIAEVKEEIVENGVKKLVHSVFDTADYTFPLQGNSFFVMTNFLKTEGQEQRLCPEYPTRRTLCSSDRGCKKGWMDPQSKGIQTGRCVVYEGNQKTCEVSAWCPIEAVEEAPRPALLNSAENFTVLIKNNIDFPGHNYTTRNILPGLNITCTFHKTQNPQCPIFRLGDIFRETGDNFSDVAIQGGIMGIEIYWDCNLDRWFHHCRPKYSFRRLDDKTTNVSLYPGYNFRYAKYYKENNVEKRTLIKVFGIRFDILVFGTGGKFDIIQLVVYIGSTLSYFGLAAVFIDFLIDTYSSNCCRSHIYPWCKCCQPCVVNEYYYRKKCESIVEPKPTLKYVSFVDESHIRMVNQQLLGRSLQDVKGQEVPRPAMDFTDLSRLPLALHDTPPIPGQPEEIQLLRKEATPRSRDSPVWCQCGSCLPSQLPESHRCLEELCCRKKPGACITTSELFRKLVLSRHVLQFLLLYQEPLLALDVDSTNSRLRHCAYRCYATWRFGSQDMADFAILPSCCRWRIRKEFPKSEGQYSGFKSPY

PBMC 1 μM (% control) | SMILES
11.2 % control | CC1c2ncn(-c3ccccc3)c2CCN1C(=O)c1cccc(C(F)(F)F)c1Cl (centres unmarked) [Example 12, (2-Chloro-3-(trifluoromethyl)phenyl)(4-methyl-1-phenyl-6,7-dihydro-1H-imidazo[4,5-c]pyridin-5(4H)-yl)methanone]
100.4 % control | O=C(c1cccnc1C(F)(F)F)N1CCc2c(-c3ccccc3)n[nH]c2C1 [Example 322, (3-phenyl-4,5-dihydro-1H-pyrazolo[3,4-c]pyridin-6(7H)-yl)(2-(trifluoromethyl)pyridin-3-yl)methanone]
99.7 % control | O=C(c1c(F)cccc1Cl)N1CCc2c(-c3ccccc3)n[nH]c2C1 [Example 325, (2-chloro-6-fluorophenyl)(3-phenyl-4,5-dihydro-1H-pyrazolo[3,4-c]pyridin-6(7H)-yl)methanone]
94.7 % control | COc1ccccc1-n1nnc2c1CCN(C(=O)c1cccc(C(F)(F)F)c1F)C2 [Example 124, (2-Fluoro-3-(trifluoromethyl)phenyl)(1-(2-methoxyphenyl)-6,7-dihydro-1H-[1,2,3]triazolo[4,5-c]pyridin-5(4H)-yl)methanone]
100.4 % control | O=C(c1c(Cl)cccc1Cl)N1CCc2c(-c3ccccc3)n[nH]c2C1 [Example 324, (2,6-dichlorophenyl)(3-phenyl-4,5-dihydro-1H-pyrazolo[3,4-c]pyridin-6(7H)-yl)methanone]
6.5 % control | CC1c2ncn(-c3ccccn3)c2CCN1C(=O)c1cccc(C(F)(F)F)c1Cl (centres unmarked) [Example 17, (2-Chloro-3-(trifluoromethyl)phenyl)(4-methyl-1-(pyridin-2-yl)-6,7-dihydro-1H-imidazo[4,5-c]pyridin-5(4H)-yl)methanone]
24.7 % control | Cn1nc2c(c1-c1cccnc1)CCN(C(=O)c1cccc(C(F)(F)F)c1Cl)C2 [Example 107, 6-{[2-Chloro-3-(trifluoromethyl)phenyl]carbonyl}-2-methyl-3-pyridin-3-yl-4,5,6,7-tetrahydro-2H-pyrazolo[3,4-c]pyridine]

Same assay, conditions: compound 10 μM, LPS 30 ng/ml, Bz-ATP 0.5 mM

PBMC 10 μM (% control) | SMILES
−7.1 % control | Cc1cccnc1-n1nnc2c1CCN(C(=O)c1cccc(C(F)(F)F)c1Cl)[C@@H]2C (single isomer, unassigned) [Example 291, (R*)-(2-chloro-3-(trifluoromethyl)phenyl)(4-methyl-1-(3-methylpyridin-2-yl)-6,7-dihydro-1H-[1,2,3]triazolo[4,5-c]pyridin-5(4H)-yl)methanone]
58.0 % control | Cc1cccc(-n2nnc3c2CCN(C(=O)c2cccc(C(F)(F)F)c2Cl)[C@@H]3C)n1 (single isomer, unassigned) [Example 226, (R*)-(2-chloro-3-(trifluoromethyl)phenyl)(4-methyl-1-(6-methylpyridin-2-yl)-6,7-dihydro-1H-[1,2,3]triazolo[4,5-c]pyridin-5(4H)-yl)methanone]
4.5 % control | CC1c2nnn(-c3ncc(F)cn3)c2CCN1C(=O)c1cccc(C(F)(F)F)c1F (centres unmarked) [Example 175, (2-fluoro-3-(trifluoromethyl)phenyl)(1-(5-fluoropyrimidin-2-yl)-4-methyl-6,7-dihydro-1H-[1,2,3]triazolo[4,5-c]pyridin-5(4H)-yl)methanone]
2.7 % control | C[C@H]1Cc2c(nnn2-c2ncc(F)cn2)CN1C(=O)c1ccc(F)c(Cl)c1Cl (single isomer, unassigned) [Example 215, (6S*)-5-[(2,3-Dichloro-4-fluorophenyl)carbonyl]-1-(5-fluoropyrimidin-2-yl)-6-methyl-4,5,6,7-tetrahydro-1H-[1,2,3]triazolo[4,5-c]pyridine]
13.3 % control | CC1c2nnn(-c3ncccn3)c2CCN1C(=O)c1cccc(C(F)(F)F)c1Cl (single isomer, unassigned) [Example 88, (4R*)-5-{[2-Chloro-3-(trifluoromethyl)phenyl]carbonyl}-4-methyl-1-pyrimidin-2-yl-4,5,6,7-tetrahydro-1H-[1,2,3]triazolo[4,5-c]pyridine]
−12.8 % control | C[C@H]1c2ncn(-c3ncc(F)cn3)c2CCN1C(=O)c1cccc(C(F)(F)F)c1Cl (single isomer, unassigned) [Example 194, (S*)-(2-Chloro-3-(trifluoromethyl)phenyl)(1-(5-fluoropyrimidin-2-yl)-4-methyl-6,7-dihydro-1H-imidazo[4,5-c]pyridin-5(4H)-yl)methanone]
−4.7 % control | C[C@H]1c2nnn(-c3ncc(F)cn3)c2CCN1C(=O)c1cccc(C(F)(F)F)c1F (single isomer, unassigned) [Example 178, (S*)-(2-fluoro-3-(trifluoromethyl)phenyl)(1-(5-fluoropyrimidin-2-yl)-4-methyl-6,7-dihydro-1H-[1,2,3]triazolo[4,5-c]pyridin-5(4H)-yl)methanone]
1.4 % control | C[C@@H]1c2ncn(-c3ncc(F)cn3)c2CCN1C(=O)c1cccc(C(F)(F)F)c1Cl (single isomer, unassigned) [Example 193, (R*)-(2-Chloro-3-(trifluoromethyl)phenyl)(1-(5-fluoropyrimidin-2-yl)-4-methyl-6,7-dihydro-1H-imidazo[4,5-c]pyridin-5(4H)-yl)methanone]
19.6 % control | C[C@H]1c2nnn(-c3cnccn3)c2CCN1C(=O)c1ccc(F)c(Cl)c1Cl (single isomer, unassigned) [Example 144, (S*)-(2,3-Dichloro-4-fluorophenyl)(4-methyl-1-(pyrazin-2-yl)-6,7-dihydro-1H-[1,2,3]triazolo[4,5-c]pyridin-5(4H)-yl)methanone]
−1.0 % control | CC1Cc2c(nnn2-c2cnccn2)CN1C(=O)c1cccc(C(F)(F)F)c1Cl (centres unmarked) [Example 209, 5-{[2-Chloro-3-(trifluoromethyl)phenyl]carbonyl}-6-methyl-1-pyrazin-2-yl-4,5,6,7-tetrahydro-1H-[1,2,3]triazolo[4,5-c]pyridine]
2.1 % control | Cc1c(C(=O)N2CCc3c(nnn3-c3ncccn3)[C@@H]2C)cccc1C(F)(F)F (single isomer, unassigned) [Example 197, (S*)-(4-methyl-1-(pyrimidin-2-yl)-6,7-dihydro-1H-[1,2,3]triazolo[4,5-c]pyridin-5(4H)-yl)(2-methyl-3-(trifluoromethyl)phenyl)methanone]

SMILES | PBMC 10 μM (% control)
Cc1nc(-n2nnc3c2CCN(C(=O)c2cccc(C(F)(F)F)c2Cl)C3C)ncc1F (single isomer, unassigned) [Example 306, (S*)-(2-chloro-3-(trifluoromethyl)phenyl)(1-(5-fluoro-4-methylpyrimidin-2-yl)-4-methyl-6,7-dihydro-1H-[1,2,3]triazolo[4,5-c]pyridin-5(4H)-yl)methanone] | 2.5 % control
CC1Cc2c(nnn2-c2ncc(F)cn2)CN1C(=O)c1ccc(F)c(Cl)c1Cl (centres unmarked) [Example 213, 5-[(2,3-Dichloro-4-fluorophenyl)carbonyl]-1-(5-fluoropyrimidin-2-yl)-6-methyl-4,5,6,7-tetrahydro-1H-[1,2,3]triazolo[4,5-c]pyridine] | 0.3 % control
